Where a SMILES comes first, the peptide text is derived from it. [ ]: non-standard residue; d: D form. ξ: configuration not given here. ξBip(2'-Et-4'-OMe) = CCc1cc(OC)ccc1-c1ccc(CC(N)C(=O)O)cc1; αMePhe(2,6-F2) = C[C@](N)(Cc1c(F)cccc1F)C(=O)O; ξαMePhe(2,6-F2) = CC(N)(Cc1c(F)cccc1F)C(=O)O; ξαMePhe(2-F) = CC(N)(Cc1ccccc1F)C(=O)O; hhPhe = N[C@@H](CCCc1ccccc1)C(=O)O; hArg = N=C(N)NCCCC[C@H](N)C(=O)O; Cit = NC(=O)NCCC[C@H](N)C(=O)O; Nle = CCCC[C@H](N)C(=O)O; Orn = NCCC[C@H](N)C(=O)O; Ac5c = NC1(C(=O)O)CCCC1; Aib = CC(C)(N)C(=O)O
Tests used:
Type in all cases: in vitro ADME
[1] = Stability of peptides in human plasma; conditions: human, plasma; for metabolised at 24 h, 2 μM: pH 7.8
In short: (§1)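 Peptides at 2 μM final incubated 0–24 h at 37 °C (50 mM triethanolamine-HCl, pH 7.8) in each matrix, matrix level set to degrade ~50% PTH(1-34) in 1 h; TFA-quenched, C18 HPLC at 206 nm with ESI-MS peak identification; percent degradation from peak areas at each time point.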

[2] = Stability of peptides in simulated intestinal fluid (pH 7.5); conditions: pH 7.5; for % degradation of peptides in 24 h when incubated with simulated intestinal fluid: 2 μM
In short: as §1

[3] = Stability of peptides in simulated gastric fluid (pH 1.5; HCl, NaCl and Pepsin); conditions: pH 1.5; for % degradation of peptides in 24 h when incubated with simulated gastric fluid: 2 μM
[4] = Stability of peptides in human liver microsomes; conditions: human, microsomes; for % degradation of peptides in 24 h when incubated with liver microsomes: 2 μM, pH 7.8
In short: as §1

Row | half-life [1] [h] | metabolised at 24 h, 2 μM [1] [%] | half-life (t1/2) in simulated intestinal fluid ([2]; simulated gi fluid) | % degradation of peptides in 24 h when incubated with simulated intestinal fluid [2] [%] | % degradation of peptides in 24 h when incubated with simulated gastric fluid [3] [%] | half-life (t1/2) in simulated gastric fluid ([3]; simulated gi fluid) | half-life [4] [h] | % degradation of peptides in 24 h when incubated with liver microsomes [4] [%] | half-life ([2]; simulated gi fluid) [h] | half-life ([3]; simulated gi fluid) [h] | Structure (SMILES)
1 | 8 | 78 | (6) h | 55 | 12 | (8) h | 1 | 79 |  |  | CCCC[C@H](NC(=O)C(C)(Cc1c(F)cccc1F)NC(=O)[C@H](CCC(N)=O)NC(=O)[C@@H](NC(=O)[C@H](CCC(=O)O)NC(=O)C1(NC(=O)[C@@H](NC(=O)C2(N)CCCC2)C(C)C)CCCC1)[C@@H](C)CC)C(=O)N[C@@H](Cc1c[nH]cn1)C(=O)N[C@@H](CCC(N)=O)C(=O)N[C@@H](CCCCNC(=N)N)C(=O)N[C@@H](C)C(=O)N[C@@H](CCCCN)C(=O)NC(C)(Cc1c(F)cccc1F)C(N)=O (some centres unmarked) [Seq. ID. 115] (H-[Ac5c]V[Ac5c]EIQ[ξαMePhe(2,6-F2)][Nle]HQ[hArg]AK[ξαMePhe(2,6-F2)]-NH2)
2 | > 24 | 0 |  | 00 | 55 |  | 2 | 84 | > 24 | 4 | CCCC[C@H](NC(=O)[C@](C)(Cc1c(F)cccc1F)NC(=O)[C@H](CCC(N)=O)NC(=O)[C@@H](NC(=O)[C@H](CCC(=O)O)NC(=O)C(C)(C)NC(=O)[C@@H](NC(=O)C(C)(C)N)C(C)C)[C@@H](C)CC)C(=O)N[C@@H](Cc1c[nH]cn1)C(=O)N[C@@H](CCC(N)=O)C(=O)N[C@@H](CCCNC(N)=O)C(=O)NC(C)(C)C(=O)N[C@@](C)(Cc1c(F)cccc1F)C(=O)N[C@@](C)(Cc1c(F)cccc1F)C(N)=O [Seq. ID. 390] (H-[Aib]V[Aib]EIQ[αMePhe(2,6-F2)][Nle]HQ[Cit][Aib][αMePhe(2,6-F2)][αMePhe(2,6-F2)]-NH2)
3 | > 23 | 1 |  | 05 | 43 |  | 2 | 84 | > 22 | 4 | CCCC[C@H](NC(=O)C(C)(Cc1c(F)cccc1F)NC(=O)[C@H](CCC(N)=O)NC(=O)[C@@H](NC(=O)[C@H](CCC(=O)O)NC(=O)C(C)(C)NC(=O)[C@@H](NC(=O)C1(N)CCCC1)C(C)C)[C@@H](C)CC)C(=O)N[C@@H](Cc1c[nH]cn1)C(=O)N[C@@H](CCC(N)=O)C(=O)N[C@@H](CCCN)C(=O)N[C@@H](C)C(=O)N[C@@H](CCCNC(N)=O)C(=O)NC(Cc1ccc(-c2ccc(OC)cc2CC)cc1)C(=O)N[C@@H](CCCc1ccccc1)C(N)=O (some centres unmarked) [Seq. ID. 829] (H-[Ac5c]V[Aib]EIQ[ξαMePhe(2,6-F2)][Nle]HQ[Orn]A[Cit][ξBip(2'-Et-4'-OMe)][hhPhe]-NH2)
4 | > 24 | 0 |  | 00 | 43 |  | 2 | 84 | > 24 | 4 | CCCC[C@H](NC(=O)C(C)(Cc1ccccc1F)NC(=O)[C@H](CCC(N)=O)NC(=O)[C@@H](NC(=O)[C@H](CCC(=O)O)NC(=O)C(C)(C)NC(=O)[C@@H](NC(=O)C(C)(C)N)C(C)C)[C@@H](C)CC)C(=O)N[C@@H](Cc1c[nH]cn1)C(=O)N[C@@H](CCC(N)=O)C(=O)NC(C)(Cc1c(F)cccc1F)C(=O)NC(C)(C)C(=O)NC(C)(C)C(=O)NC(C)(Cc1ccccc1F)C(N)=O (some centres unmarked) [Seq. ID. 490] (H-[Aib]V[Aib]EIQ[ξαMePhe(2-F)][Nle]HQ[ξαMePhe(2,6-F2)][Aib][Aib][ξαMePhe(2-F)]-NH2)

— patent US8383581B2, “Short-chain peptides as parathyroid hormone (PTH) receptor agonist” (Cadila Healthcare Limited, priority 2009, dated 2013)
